The values that follow come from ChEMBL document CHEMBL1201862, “PubChem BioAssay data set” (2004).

Test systems include SK-MEL-28; RXF 393; HL-60; KM12; CCRF-CEM; KM-20L2; LOX IMVI; OVCAR-4; DLD-1; HCT-116; HOP-62; SNB-75; COLO 205; SF-295; SK-MEL-2; NCI-H522; UACC-62; MOLT-4; DMS-114; OVCAR-8.
Common to all, as to assay: growth of human tumour cells (NCI), 48 h

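Cells were grown in 96-well plates and exposed to each compound for 48 hours at five concentrations; endpoints were interpolated linearly between bracketing concentrations, or set to the highest concentration if not reached. GI50 = concentration required for 50% inhibition of growth.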 Activity calls are given as the source filed them. No stated cut-off is given here; in the data, active = GI50 up to about 1.1 µM and inactive = higher. Some results are limits rather than exact numbers.

With `OCC#CCNCl`, the GI50 in the test with SK-MEL-28, in the test with RXF 393, in the test on HL-60, with KM12, with CCRF-CEM and in the test with KM-20L2 was > 100 µM (inactive) throughout. Also, the GI50 in the test with LOX IMVI, in the test with OVCAR-4, in the test with DLD-1, in the test on HCT-116, in the test with HOP-62 and with SNB-75 was > 100 µM (inactive) in each case. The GI50 in the test with COLO 205, in the test with SF-295, in the test with SK-MEL-2, in the test on NCI-H522, in the test with UACC-62 and in the test on MOLT-4 was > 100 µM (inactive) in each case. Besides, the GI50 in the test on DMS-114 and in the test on OVCAR-8 was > 100 µM (inactive) in each case.
Turning to `COc1cc([C@@H]2c3cc4c(cc3[C@@H](OC3OC5COC(C)OC5C(O)C3O)[C@H]3COC(=O)[C@H]23)OCO4)cc(OC)c1O` (some centres undefined), the GI50 with SK-MEL-28 was 22.1 µM (inactive); in the test on RXF 393, 14.9 µM (inactive); in the test on HL-60, 0.807 µM (active); in the test with KM12, 18.6 µM (inactive); with CCRF-CEM, 1.4 µM (inactive); in the test on KM-20L2, 70.8 µM (inactive). The GI50 in the test on LOX IMVI was 2.74 µM (inactive); with OVCAR-4, 113 µM (inactive); in the test with DLD-1 it was 37.2 µM (inactive); in the test on HCT-116 it was 13.6 µM (inactive); in the test with HOP-62, 1.97 µM (inactive); in the test on SNB-75 it was 12.1 µM (inactive). For the same molecule, the GI50 is 40.3 µM (inactive) in the test on COLO 205; 5.92 µM (inactive) with SF-295; 21.7 µM (inactive) in the test with SK-MEL-2; 6.03 µM (inactive) in the test on NCI-H522; 6.11 µM (inactive) with UACC-62; 0.547 µM (active) in the test with MOLT-4. Also, the figures for the GI50 in the test with DMS-114 and in the test with OVCAR-8 were 5.57 µM (inactive) and 11.3 µM (inactive), respectively.
In the case of `CN(CCO)/N=N/c1n[nH]cc1C(N)=O`, the GI50 in the test with SK-MEL-28 is > 100 µM (inactive); in the test on RXF 393 it was > 100 µM (inactive); in the test on HL-60, > 100 µM (inactive); with KM12, > 100 µM (inactive); in the test with CCRF-CEM it was > 100 µM (inactive); with KM-20L2 it was > 86.7 µM (inactive). Moreover, the GI50 with LOX IMVI, in the test with OVCAR-4, in the test on DLD-1, in the test with HCT-116, in the test on SNB-75 and with COLO 205 was > 100 µM (inactive) in each case. Besides, the GI50 in the test on SF-295, in the test on SK-MEL-2, with NCI-H522, in the test on UACC-62, in the test on MOLT-4 and in the test on DMS-114 was > 100 µM (inactive) each time. Moreover, the GI50 in the test with OVCAR-8 is > 100 µM (inactive).
As for `CCC(C)C1NC(=O)CNC(=O)C2Cc3c([nH]c4cc(O)ccc34)[S+]([O-])CC(NC(=O)CNC1=O)C(=O)NC(CC(=O)O)C(=O)N1CC(O)CC1C(=O)NC(C(C)C(O)CO)C(=O)N2` (centres undefined), the GI50 in the test with SK-MEL-28 was 2.54 µM (inactive); in the test with RXF 393 it was 0.579 µM (active); with HL-60, 28.6 µM (inactive); with KM12, 6.46 µM (inactive); in the test on CCRF-CEM, 6.24 µM (inactive); with KM-20L2, 31.6 µM (inactive). Moreover, the GI50 is 2.38 µM (inactive) in the test with LOX IMVI; 2.07 µM (inactive) in the test on OVCAR-4; 12.4 µM (inactive) with DLD-1; 6.37 µM (inactive) in the test with HCT-116; 0.662 µM (active) with HOP-62; 0.918 µM (active) in the test with SNB-75. Also, the GI50 in the test with COLO 205 was 1.41 µM (inactive); in the test with SF-295, 1.51 µM (inactive); with SK-MEL-2 it was 2.08 µM (inactive); with NCI-H522, 0.776 µM (active); in the test with UACC-62, 2.35 µM (inactive); in the test on MOLT-4 it was 3.72 µM (inactive). Also, the values for the GI50 in the test on DMS-114 and with OVCAR-8 were 0.759 µM (active) and 3.7 µM (inactive), respectively.
As for `COc1ccc(CC(N)=O)cc1OC`, the GI50 with SK-MEL-28 was > 1250 µM (inactive); in the test with RXF 393 it was > 1250 µM (inactive); in the test on HL-60 it was > 1150 µM (inactive); in the test on KM12 it was > 1250 µM (inactive); in the test on CCRF-CEM it was > 1250 µM (inactive); with KM-20L2, > 1140 µM (inactive). Further, the GI50 in the test on LOX IMVI was > 1250 µM (inactive); in the test on OVCAR-4 it was > 1250 µM (inactive); in the test on DLD-1, > 1250 µM (inactive); in the test on HCT-116, > 1250 µM (inactive); with HOP-62 it was > 818 µM (inactive); with SNB-75, 769 µM (inactive). For the same molecule, the GI50 with COLO 205, in the test with SF-295, in the test with SK-MEL-2, in the test on NCI-H522, in the test on UACC-62 and with MOLT-4 was > 1250 µM (inactive) each time. In addition, the GI50 was > 1250 µM (inactive) in the test on DMS-114 and 198 µM (inactive) in the test on OVCAR-8.
Consider `CCOC(=O)C(C#N)(Cc1c[nH]c2ccccc12)NC(C)=O` (centres undefined), for which the GI50 with SK-MEL-28, in the test on RXF 393, in the test on HL-60, in the test on KM12, with CCRF-CEM and in the test with KM-20L2 was > 100 µM (inactive) throughout. In addition, the GI50 in the test with LOX IMVI, in the test on OVCAR-4, in the test on DLD-1, in the test with HCT-116, in the test on HOP-62 and in the test on SNB-75 was > 100 µM (inactive) each time. For the same molecule, the GI50 with COLO 205, with SF-295, in the test on SK-MEL-2, in the test with NCI-H522, in the test with UACC-62 and in the test with MOLT-4 was > 100 µM (inactive) each time. The GI50 in the test on DMS-114 and in the test on OVCAR-8 was > 100 µM (inactive) each time.
For the molecule `CN(C)CCNC(=O)c1cccc2[nH]c(-c3ccccn3)nc12`, the GI50 in the test on SK-MEL-28 was 36.6 µM (inactive); with RXF 393, 51.2 µM (inactive); with HL-60, 33.7 µM (inactive); with KM12 it was 41.6 µM (inactive); in the test on CCRF-CEM, 23.5 µM (inactive); in the test on KM-20L2, 25.6 µM (inactive). Further, the GI50 in the test with LOX IMVI is 32.5 µM (inactive); with OVCAR-4, 27.5 µM (inactive); in the test with DLD-1, 33.7 µM (inactive); with HCT-116, 19.4 µM (inactive); in the test with HOP-62, 35.3 µM (inactive); with SNB-75 it was 21.2 µM (inactive). The GI50 was 14 µM (inactive) with COLO 205; 31 µM (inactive) with SF-295; 39.7 µM (inactive) with SK-MEL-2; 25.6 µM (inactive) with NCI-H522; 20.2 µM (inactive) in the test with UACC-62; 20.7 µM (inactive) in the test on MOLT-4. For the same molecule, the GI50 in the test with DMS-114 is 27 µM (inactive); in the test with OVCAR-8 it was 27.9 µM (inactive).
